Experimental data published in ChEMBL document CHEMBL4190372, “Discovery of a Novel Oral Glucocorticoid Receptor Modulator (AZD9567) with Improved Side Effect Profile” (J Med Chem, 2018).
Converted amounts (≈) assume the structure as drawn.

What was measured:
[1] = molecular target: T1, Glucocorticoid receptor (Homo sapiens, UniProt P04150); assay: Displacement of fluormone RED from human full length glucocorticoid receptor after 4 hrs by fluorescence polarization assay
T1 sequence (P04150 whole entry): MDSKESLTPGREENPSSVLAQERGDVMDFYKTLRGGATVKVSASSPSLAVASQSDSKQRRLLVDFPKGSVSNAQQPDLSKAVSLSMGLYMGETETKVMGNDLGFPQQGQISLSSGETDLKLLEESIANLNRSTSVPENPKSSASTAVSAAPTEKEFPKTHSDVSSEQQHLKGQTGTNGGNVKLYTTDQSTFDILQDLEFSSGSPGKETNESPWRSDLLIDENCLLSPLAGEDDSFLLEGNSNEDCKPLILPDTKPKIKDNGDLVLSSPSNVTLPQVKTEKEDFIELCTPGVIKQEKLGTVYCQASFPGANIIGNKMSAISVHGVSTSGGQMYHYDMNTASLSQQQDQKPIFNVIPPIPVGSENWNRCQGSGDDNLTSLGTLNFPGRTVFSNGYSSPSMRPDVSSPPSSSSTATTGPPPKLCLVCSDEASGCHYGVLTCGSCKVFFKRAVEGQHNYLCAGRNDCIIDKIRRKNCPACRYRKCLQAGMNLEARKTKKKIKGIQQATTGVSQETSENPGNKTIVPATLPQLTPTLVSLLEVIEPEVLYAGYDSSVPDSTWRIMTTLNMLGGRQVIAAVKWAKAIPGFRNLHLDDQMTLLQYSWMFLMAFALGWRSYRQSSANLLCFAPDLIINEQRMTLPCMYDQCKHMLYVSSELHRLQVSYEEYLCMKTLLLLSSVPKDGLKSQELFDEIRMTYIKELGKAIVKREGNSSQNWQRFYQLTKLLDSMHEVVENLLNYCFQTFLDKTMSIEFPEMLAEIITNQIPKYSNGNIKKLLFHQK

[2] = Aqueous solubility of the compound; assay type: physicochemical; settings: aqueous; read-out: solubility
[3] = molecular target: T2, Progesterone receptor (Homo sapiens, UniProt P06401); assay: Displacement of [3H]progesterone from progesterone receptor in human T47D cells after 1200 mins by scintillation counting method; assay type: cell-based
T2 sequence (P06401 whole entry): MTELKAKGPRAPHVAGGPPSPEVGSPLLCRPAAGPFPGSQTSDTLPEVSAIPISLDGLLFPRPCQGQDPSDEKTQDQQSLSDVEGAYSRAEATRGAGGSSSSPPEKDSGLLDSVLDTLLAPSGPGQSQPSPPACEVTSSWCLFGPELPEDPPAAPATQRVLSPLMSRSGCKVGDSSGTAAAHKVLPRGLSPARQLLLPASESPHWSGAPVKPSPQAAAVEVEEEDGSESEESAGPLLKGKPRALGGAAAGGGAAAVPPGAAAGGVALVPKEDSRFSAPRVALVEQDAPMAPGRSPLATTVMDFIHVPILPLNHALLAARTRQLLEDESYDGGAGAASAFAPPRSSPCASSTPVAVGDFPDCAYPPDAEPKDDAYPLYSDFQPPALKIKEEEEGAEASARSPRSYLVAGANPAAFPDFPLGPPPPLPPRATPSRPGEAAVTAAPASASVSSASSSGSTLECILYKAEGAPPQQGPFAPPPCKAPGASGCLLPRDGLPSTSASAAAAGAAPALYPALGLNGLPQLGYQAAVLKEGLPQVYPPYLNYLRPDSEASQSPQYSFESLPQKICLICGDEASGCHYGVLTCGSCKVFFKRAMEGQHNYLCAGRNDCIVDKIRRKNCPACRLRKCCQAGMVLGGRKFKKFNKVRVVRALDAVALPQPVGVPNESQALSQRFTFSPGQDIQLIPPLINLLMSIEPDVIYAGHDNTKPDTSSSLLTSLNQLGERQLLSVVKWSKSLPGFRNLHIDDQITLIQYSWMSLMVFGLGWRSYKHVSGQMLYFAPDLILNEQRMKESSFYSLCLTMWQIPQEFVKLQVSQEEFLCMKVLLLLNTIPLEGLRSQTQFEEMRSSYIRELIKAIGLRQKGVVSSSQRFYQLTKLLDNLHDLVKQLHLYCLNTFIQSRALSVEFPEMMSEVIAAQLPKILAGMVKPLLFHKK

[4] = Tmax in Han-Wistar rat at 2.1 mg/kg, po; assay type: ADME, organism-based; settings: in vivo
[5] = test system: Rattus norvegicus; assay: Dose normalized Cmax in Han-Wistar rat at 2.1 mg/kg, po; assay type: ADME, organism-based; settings: in vivo
[6] = Terminal half life in Han-Wistar rat at 0.8 mg/kg, iv; assay type: ADME, organism-based; settings: in vivo, read-out: beta t1/2 (converted)
[7] = Clearance in Han-Wistar rat at 0.8 mg/kg, iv; assay type: ADME, organism-based; settings: in vivo
[8] = Oral bioavailability in Beagle dog at 0.5 mg/kg; assay type: ADME, organism-based, Canis lupus familiaris; settings: in vivo
[9] = Clearance in Beagle dog at 0.5 mg/kg, po; assay type: ADME, organism-based, Canis lupus familiaris; settings: in vivo
[10] = Ratio of drug level in rat blood to plasma; assay type: ADME, cell-free; settings: blood and plasma
[11] = test system: Rattus norvegicus; assay: Antiinflammatory activity in streptococcal cell wall reactivation Lewis rat model assessed as reduction of joint swelling at 0.1 mg/kg administered once daily for 8 days by oral gavage starting 1 day prior to streptococcal cell wall challenge measured during 6 days post challenge relative to control; assay type: functional; design: scale not given: the % may be the effect or the level left
[12] = test system: Rattus norvegicus; assay: Antiinflammatory activity in streptococcal cell wall reactivation Lewis rat model assessed as reduction of joint swelling at 0.3 mg/kg administered once daily for 8 days by oral gavage starting 1 day prior to streptococcal cell wall challenge measured during 6 days post challenge relative to control; assay type: functional; design: scale not given: the % may be the effect or the level left
[13] = molecular target: T1, Glucocorticoid receptor
Description: Transactivation activity at glucocorticoid receptor (unknown origin) expressed in human ChaGoK1 cells incubated for 24 hrs by beta-galactosidase reporter gene assay

[14] = molecular target: T3, Glucocorticoid receptor (Homo sapiens) (UniProt P04150)
T3 sequence (whole entry): T1 sequence (P04150 whole entry)
Description: Transrepression of GR in cryopreserved human fetal osteoblasts assessed as inhibition of OPG mRNA expression after 4 hrs by RT-qPCR analysis

[15] = molecular target: T1, Glucocorticoid receptor; settings: blood
Description: Therapeutic index, ratio of fIC20 for transrepression of GR in cryopreserved human fetal osteoblasts assessed as inhibition of OPG mRNA expression to fIC30 for transrepression of GR in human whole blood assessed as inhibition of LPS-induced TNF-alpha release

## CC(C)[C@H](NC(=O)C(C)(F)F)[C@H](Oc1ccc2c(cnn2-c2ccc(=O)n(C)c2)c1)c1ccccc1 [MIZACORAT]
[1]
  IC50: 3.8 nM
[2]
  solubility: 55 µM (≈ 27.2 µg/mL)
[3]
  IC50: 5.3 µM
[4]
  Tmax: 2 h
[5]
  Cmax/dose: 0.95 µM
[6]
  half-life: 138 min
[7]
  clearance: 4.5 mL/min/kg
[8]
  bioavailability: 48%
[9]
  CL/F: 3.2 mL/min/kg
[10]
  blood plasma ratio: 0.64
[11]
  Activity: 42%
[12]
  Activity: 66%
[13]
  EC50: 11 nM
[14]
  fIC20: 0.74 nM
[15]
  TI: 0.55
